The results in this text go back to ChEMBL document CHEMBL4219163, “Discovery of 2,6-disubstituted pyrazine derivatives as inhibitors of CK2 and PIM kinases” (Bioorg Med Chem Lett, 2018).

Structures are written as SMILES.

What is called bioavailability is the share of a dose that reaches the circulation, judged against a reference dose that is usually intravenous. The low end stands for little systemic uptake, the high end for much systemic uptake. In general, AUC(0-t) refers to the area under the concentration-time curve up to a stated or last time point. What is called clearance is the volume of plasma or blood freed of the substance per unit of time. A lower clearance goes with a low capacity for elimination. In general, half-life refers to how long it takes for the measured level to halve. High values mean slow decline, low ones rapid decline. The term Cmax denotes the highest concentration seen after dosing. One may read the logD as the decadic logarithm of the distribution of all forms, ionised or not, between an organic phase and buffer at a given pH.

Data set [1] can be described thus: Oral bioavailability in Wistar Han rat at 10 mg/kg. The following applies: in vivo. The class given is ADME, organism-based.
A short description of data set [2]: AUC (0 to t) in Wistar Han rat at 3 mg/kg, iv or 10 mg/kg, po. The class given is ADME, organism-based. Particulars: in vivo.
Data set [3] can be described thus: Clearance in Wistar Han rat at 3 mg/kg, iv. The class given is ADME, organism-based. Particulars: in vivo.
Data set [4] in a line: Volume of distribution at steady state in Wistar Han rat at 3 mg/kg, iv or 10 mg/kg, po. The class given is ADME, organism-based. Particulars: in vivo, read-out: Vdss.
Data set [5] is described as follows: Half life in Wistar Han rat at 3 mg/kg, iv. It counts as ADME, organism-based. The following applies: in vivo.
Data set [6] in a line: Cmax in Wistar Han rat at 3 mg/kg, iv or 10 mg/kg, po. The class given is ADME, organism-based. The following applies: in vivo.
Data set [7] can be described thus: Lipophilicity, log D of the compound. It counts as physicochemical. The following applies: octanol/water.

Consider `CC(C)Nc1ccc2cnn(-c3cncc(-c4ccc(C(=O)O)cc4)n3)c2c1`, for which, in data set [1], the bioavailability was 24%. The compound also gave an area under the curve AUC(0-t) in data set [2] of 5.5 µM·h. Besides, the clearance in data set [3] was found to be 19 mL/min/kg. Besides, the Vd in data set [4] is 1 L/kg. In data set [5], this compound gave a half-life of 7.1 h. In addition, in data set [6], the peak level (Cmax) was 830 nM. In data set [7], this compound yielded a logD of 1.06.

The compound `CC(C)Nc1ccc2ccn(-c3cncc(-c4ccc(C(=O)O)cc4)n3)c2c1` showed a bioavailability in data set [1] of 80%. Besides, the AUC(0-t) in data set [2] came out at 5.5 µM·h. Further, the clearance in data set [3] is 56 mL/min/kg. For the same compound, the Vd in data set [4] stood at 1.8 L/kg. Besides, in data set [5], the half-life is 1 h. The same compound showed a Cmax in data set [6] of 2900 nM.
